Results as given in patent US20110173718A1, “HERBICIDE TOLERANT PLANTS” (SYNGENTA CROP PROTECTION, INC., priority 2008, published 2011).
“And” between values parts separate entries of the source, which are not always exact repeats. Equal entries are not always repeated.

How the values were obtained:
Format in all cases: in vivo
weeds [1] = assay: Glasshouse weed control, HST inhibitors alone and with A22, pre-emergence; conditions: 14 DAT
Procedure: (§1) In a further test, the results of which are depicted in tables 18 and 19, weed seeds are planted out in trays containing 50% peat/50% John Innes no. 3 soil and grown in the glass house at 24-27 C day; 18-21 C night and approximately a 15 h photoperiod. Humidity is ˜65% and light levels at bench level are up to 2 mmol/m^2. Again all spray chemicals are dissolved in 0.2% X77 surfactant and sprayed from a boom on a track sprayer moving at 2 mph with the nozzle set about 2 inches above the plant tops. The spray volume is […]. Sprays are carried out both pre-emergence and post-emergence over small plants at about 7-12 d post-emergence. Plants are assessed at 14 DAT with herbicidal damage scored on a scale from 0 to 100%. The HPPD inhibiting herbicide is compound A22 (4-hydroxy-3-[[2-(2-methoxyethoxy)methyl]-6-(trifluoromethyl)-3-pyridinylicarbonyl]-bicyclo[3.2.1]oct-3-en-2-one) which is sprayed at 2 g/ha both alone and in mixture with various HST herbicides. Results and spray rates are depicted in Tables 18 and 19. Again the Colby formula has been used to calculate synergy scores observed following treatment with the mixture based on the results obtained with the single components alone. Positive synergy is observed between the HPPD herbicide and a wide variety of HST inhibitor herbicides applied both pre and postemergence across a variety of weeds.

weeds [2] = assay: Glasshouse weed control, HST inhibitors alone and with A22, post-emergence; conditions: 14 DAT, single replicate
Procedure: as §1

[3] = test system: wild-type (WT) Samsun tobacco; assay: Glasshouse spray test, wild-type tobacco; conditions: Norflurazon, 150 g/ha; 14 DAT; WT control, reps
Procedure: Rooted transgenic T0 plantlets are transferred from agar and potted into 50% peat, 50% John Innes soil no 3 or, for example, MetroMix® 380 soil (Sun Gro Horticulture, Bellevue, Wash.) with slow-release fertilizer in 3 inch round or 4 inch square pots and left regularly watered to establish for 8-12 d in the glass house. Glass house conditions are about 24-27° C. day; 18-21° C. night and approximately a 14 h (or longer in UK summer) photoperiod. Humidity is ˜65% and light levels up to 2000 μmol/m^2 at bench level. Once new tissue emerges and plants they have reached the 2-4 leaf stage some of the clones from each event are sprayed with test chemicals dissolved in water with 0.2-0.25% X-77 surfactant and sprayed from a boom on a suitable track sprayer moving at 2 mph in a DeVries spray chamber with the nozzle about 2 inches from the plant tops. Spray volume is suitably 25 gallons per acre or, for example, […].
Test chemicals are, for example, compound 2.3 at 500 g/ha. At the same time that transgenic plants are sprayed so too are w/t Samsun tobacco plants grown from seed as well as non-transgenic plants regenerated from tissue culture and non-transgenic tissue culture escapes. Damage is assessed versus unsprayed control plants of like size and development.
6 Seed from w/t Samsun tobacco and 8 T1 seed from events B8 and G9 are also planted out in 3 inch pots, grown on for 7 to 12 d and then, as described in the foregoing examples, the plantlets spray tested for resistance to various chemicals and assessed at 14 DAT. Chemicals are formulated in 0.2% X77 and sprayed at a spray volume of 200 l/ha.
Seed of wild-type tobacco plants, C2 tobacco plants and of the T1 progeny of a further Arabidopsis-HST expressing tobacco line, D2 were planted out in 3 inch pots, grown on, sprayed with compounds 1.1, 2.30 and 3.6 at the rates shown in table 5. Percent damage scores were assessed at 7 DAT. Aside from the presumptive non-transgenic segregants the D2 line containing the Arabidopis HST expression construct offered the highest level of tolerance to the two HST herbicides with the Psuedomonas HPPD, C2 line, offering only marginal tolerance under the conditions of this test.
Single copy events amongst the T1 plant lines are identified by their 3:1 segregation ratio (wrt kanamycin and or herbicide) and by quantitative RT-PCR. Seed from the thus selected T1 tobacco (var Samsun) lines are sown in 3 inch diameter pots containing 50% peat, 50% John Innes soil no 3. After growth to the 3 leaf stage, plants are sprayed, as described above, in order to test for herbicide tolerance relative to like-treated non-transgenic tobacco plants.
Control tobacco plants and transgenic T1 plants expressing either the Pseudomonas or the wheat HPPD gene are sprayed at 37, 111, 333 and 1000 g/ha rates of HST inhibitors and, for example, compound 2.3.
Plants are assessed and scored for % damage at 16 DAT.

CC(C)(C)C(=O)Oc1c(-c2c(F)ccc(Cl)c2Cl)c(=O)n(CC(F)F)c2nccnc12 [Compound 2.25]
BRAPL Obs, % control score (weeds [1]; HST inhibitor rate 15.625 g/ha): 0%
BRAPL Obs, % control score (weeds [1]; HST inhibitor rate 62.5 g/ha): 2%
BRAPL Obs, % control score (weeds [1]; HST inhibitor rate 250 g/ha): 20%
DIGSA Obs, % control score (weeds [1]; HST inhibitor rate 15.625 g/ha): 0%
DIGSA Obs, % control score (weeds [1]; HST inhibitor rate 62.5 g/ha): 0%
DIGSA Obs, % control score (weeds [1]; HST inhibitor rate 250 g/ha): 5%
ECHCG Obs, % control score (weeds [1]; HST inhibitor rate 15.625 g/ha): 0%
ECHCG Obs, % control score (weeds [1]; HST inhibitor rate 62.5 g/ha): 0%
ECHCG Obs, % control score (weeds [1]; HST inhibitor rate 250 g/ha): 30%
PANMI Obs, % control score (weeds [1]; HST inhibitor rate 15.625 g/ha): 0%
PANMI Obs, % control score (weeds [1]; HST inhibitor rate 62.5 g/ha): 0%
PANMI Obs, % control score (weeds [1]; HST inhibitor rate 250 g/ha): 10%
SETFA Obs, % control score (weeds [1]; HST inhibitor rate 15.625 g/ha): 0%
SETFA Obs, % control score (weeds [1]; HST inhibitor rate 62.5 g/ha): 1%
SETFA Obs, % control score (weeds [1]; HST inhibitor rate 250 g/ha): 15%
SIDSP Obs, % control score (weeds [1]; HST inhibitor rate 15.625 g/ha): 0%
SIDSP Obs, % control score (weeds [1]; HST inhibitor rate 62.5 g/ha): 1%
SIDSP Obs, % control score (weeds [1]; HST inhibitor rate 250 g/ha): 2%
% control score, Obs (weeds [2]; BRAPL, 15.625 g/ha alone): 15%
% control score, Obs (weeds [2]; BRAPL, 62.5 g/ha alone): 30%
% control score, Obs (weeds [2]; BRAPL, 250 g/ha alone): 60%
% control score, Obs (weeds [2]; DIGSA, 15.625 g/ha alone): 0%
% control score, Obs (weeds [2]; DIGSA, 62.5 g/ha alone): 2%
% control score, Obs (weeds [2]; DIGSA, 250 g/ha alone): 10%
% control score, Obs (weeds [2]; ECHCG, 15.625 g/ha alone): 1%
% control score, Obs (weeds [2]; ECHCG, 62.5 g/ha alone): 2%
% control score, Obs (weeds [2]; ECHCG, 250 g/ha alone): 30%
% control score, Obs (weeds [2]; PANMI, 15.625 g/ha alone): 2%
% control score, Obs (weeds [2]; PANMI, 62.5 g/ha alone): 10%
% control score, Obs (weeds [2]; PANMI, 250 g/ha alone): 55%
% control score, Obs (weeds [2]; SETFA, 15.625 g/ha alone): 1%
% control score, Obs (weeds [2]; SETFA, 62.5 g/ha alone): 5%
% control score, Obs (weeds [2]; SETFA, 250 g/ha alone): 40%
% control score, Obs (weeds [2]; SIDSP, 15.625 g/ha alone): 10%
% control score, Obs (weeds [2]; SIDSP, 62.5 g/ha alone): 30%
% control score, Obs (weeds [2]; SIDSP, 250 g/ha alone): 40%

CC(C)C(=O)Oc1c(-c2c(Cl)cccc2C(F)(F)F)c(=O)n(CC(F)F)c2nccnc12 [Compound 2.28]
BRAPL Obs, % control score (weeds [1]; HST inhibitor rate 15.625 g/ha): 0%
BRAPL Obs, % control score (weeds [1]; HST inhibitor rate 62.5 g/ha): 2%
BRAPL Obs, % control score (weeds [1]; HST inhibitor rate 250 g/ha): 50%
DIGSA Obs, % control score (weeds [1]; HST inhibitor rate 15.625 g/ha): 0%
DIGSA Obs, % control score (weeds [1]; HST inhibitor rate 62.5 g/ha): 0%
DIGSA Obs, % control score (weeds [1]; HST inhibitor rate 250 g/ha): 30%
ECHCG Obs, % control score (weeds [1]; HST inhibitor rate 15.625 g/ha): 0%
ECHCG Obs, % control score (weeds [1]; HST inhibitor rate 62.5 g/ha): 50%
ECHCG Obs, % control score (weeds [1]; HST inhibitor rate 250 g/ha): 80%
PANMI Obs, % control score (weeds [1]; HST inhibitor rate 15.625 g/ha): 0%
PANMI Obs, % control score (weeds [1]; HST inhibitor rate 62.5 g/ha): 0%
PANMI Obs, % control score (weeds [1]; HST inhibitor rate 250 g/ha): 60%
SETFA Obs, % control score (weeds [1]; HST inhibitor rate 15.625 g/ha): 0%
SETFA Obs, % control score (weeds [1]; HST inhibitor rate 62.5 g/ha): 25%
SETFA Obs, % control score (weeds [1]; HST inhibitor rate 250 g/ha): 60%
SIDSP Obs, % control score (weeds [1]; HST inhibitor rate 15.625 g/ha): 0%
SIDSP Obs, % control score (weeds [1]; HST inhibitor rate 62.5 g/ha): 0%
SIDSP Obs, % control score (weeds [1]; HST inhibitor rate 250 g/ha): 10%
% control score, Obs (weeds [2]; BRAPL, 15.625 g/ha alone): 5%
% control score, Obs (weeds [2]; BRAPL, 62.5 g/ha alone): 50%
% control score, Obs (weeds [2]; BRAPL, 250 g/ha alone): 75%
% control score, Obs (weeds [2]; DIGSA, 15.625 g/ha alone): 10%
% control score, Obs (weeds [2]; DIGSA, 62.5 g/ha alone): 50%
% control score, Obs (weeds [2]; DIGSA, 250 g/ha alone): 70%
% control score, Obs (weeds [2]; ECHCG, 15.625 g/ha alone): 2%
% control score, Obs (weeds [2]; ECHCG, 62.5 g/ha alone): 40%
% control score, Obs (weeds [2]; ECHCG, 250 g/ha alone): 70%
% control score, Obs (weeds [2]; PANMI, 15.625 g/ha alone): 1%
% control score, Obs (weeds [2]; PANMI, 62.5 g/ha alone): 35%
% control score, Obs (weeds [2]; PANMI, 250 g/ha alone): 70%
% control score, Obs (weeds [2]; SETFA, 15.625 g/ha alone): 2%
% control score, Obs (weeds [2]; SETFA, 62.5 g/ha alone): 50%
% control score, Obs (weeds [2]; SETFA, 250 g/ha alone): 80%
% control score, Obs (weeds [2]; SIDSP, 15.625 g/ha alone): 15%
% control score, Obs (weeds [2]; SIDSP, 62.5 g/ha alone): 40%
% control score, Obs (weeds [2]; SIDSP, 250 g/ha alone): 50%

COCCOCc1nc(C(F)(F)F)ccc1C(=O)C1=C(O)C2CCC(C2)C1=O (stereo not shown) [Compound A22, 4-hydroxy-3-[[2-(2-methoxyethoxy)methyl]-6-(trifluoromethyl)-3-pyridinylicarbonyl]-bicyclo[3.2.1]oct-3-en-2-one, reference compound]
BRAPL Obs, % control score (weeds [1]; rate 2 g/ha): 0%
DIGSA Obs, % control score (weeds [1]; rate 2 g/ha): 2% and 0%
ECHCG Obs, % control score (weeds [1]; rate 2 g/ha): 5% and 0%
PANMI Obs, % control score (weeds [1]; rate 2 g/ha): 0%
SETFA Obs, % control score (weeds [1]; rate 2 g/ha): 5% and 0%
SIDSP Obs, % control score (weeds [1]; rate 2 g/ha): 2% and 0%
% control score, Obs (weeds [2]; BRAPL, A22 alone 2 g/ha): 2%
% control score, Obs (weeds [2]; DIGSA, A22 alone 2 g/ha): 5%
% control score, Obs (weeds [2]; ECHCG, A22 alone 2 g/ha): 30%
% control score, Obs (weeds [2]; PANMI, A22 alone 2 g/ha): 50% and 55%
% control score, Obs (weeds [2]; SETFA, A22 alone 2 g/ha): 10% and 2%
% control score, Obs (weeds [2]; SIDSP, A22 alone 2 g/ha): 20% and 15%

CNc1cnn(-c2cccc(C(F)(F)F)c2)c(=O)c1Cl [Norflurazon, reference compound]
herbicide % damage [3]: 20% and 15% and 10%
